Measured values taken from ChEMBL document CHEMBL1149662, “Design and synthesis of a library of tertiary amides: evaluation as mimetics of the melanocortins' active core” (Bioorg Med Chem, 2007).

Tests used:
[1] = target: Melanocortin receptor 4 (Homo sapiens, UniProt P32245); assay: Displacement of [125I]NDP-MSH from human recombinant MC4 receptor expressed in Sf9 cells
[2] = target: Melanocortin receptor 3 (Homo sapiens, UniProt P41968); assay: Displacement of [125I]NDP-MSH from human recombinant MC3 receptor expressed in Sf9 cells
Chain of Melanocortin receptor 3 (P41968 whole entry): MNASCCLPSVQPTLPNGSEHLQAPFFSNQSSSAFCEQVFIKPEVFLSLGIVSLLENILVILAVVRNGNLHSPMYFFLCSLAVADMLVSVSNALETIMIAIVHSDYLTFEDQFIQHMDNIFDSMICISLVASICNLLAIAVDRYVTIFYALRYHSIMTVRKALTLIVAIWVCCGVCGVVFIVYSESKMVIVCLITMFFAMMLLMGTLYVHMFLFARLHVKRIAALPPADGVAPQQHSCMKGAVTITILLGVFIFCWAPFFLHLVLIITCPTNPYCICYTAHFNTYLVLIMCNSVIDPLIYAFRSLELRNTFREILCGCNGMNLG

[3] = target: Melanocyte-stimulating hormone receptor (Mus musculus, UniProt Q01727); assay: Displacement of [125I]NDP-MSH from MC1 receptor in mouse B16 cells; assay type: cell-based
Chain of Melanocyte-stimulating hormone receptor (Q01727 whole entry): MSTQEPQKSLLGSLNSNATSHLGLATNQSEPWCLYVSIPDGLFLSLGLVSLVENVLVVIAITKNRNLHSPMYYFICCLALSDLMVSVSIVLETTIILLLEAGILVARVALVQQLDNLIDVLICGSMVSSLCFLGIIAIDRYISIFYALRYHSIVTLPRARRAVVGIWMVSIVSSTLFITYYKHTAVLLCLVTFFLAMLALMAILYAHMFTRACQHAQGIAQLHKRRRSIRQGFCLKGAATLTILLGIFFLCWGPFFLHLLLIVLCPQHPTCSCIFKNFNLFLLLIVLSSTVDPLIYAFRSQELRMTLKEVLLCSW

[4] = target: Melanocortin receptor 5 (Homo sapiens, UniProt P33032); assay: Displacement of [125I]NDP-MSH from human recombinant MC5 receptor expressed in Sf9 cells
Chain of Melanocortin receptor 5 (P33032 whole entry): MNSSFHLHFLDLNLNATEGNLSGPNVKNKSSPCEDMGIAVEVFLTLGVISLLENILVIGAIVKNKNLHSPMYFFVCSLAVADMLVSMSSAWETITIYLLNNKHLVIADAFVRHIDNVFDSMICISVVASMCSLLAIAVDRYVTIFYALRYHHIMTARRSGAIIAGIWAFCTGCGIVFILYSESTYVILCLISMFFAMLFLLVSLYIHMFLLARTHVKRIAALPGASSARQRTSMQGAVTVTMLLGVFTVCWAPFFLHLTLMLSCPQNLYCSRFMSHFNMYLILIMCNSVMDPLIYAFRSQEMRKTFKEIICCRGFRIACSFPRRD

Chain of Melanocortin receptor 4 (P32245 whole entry): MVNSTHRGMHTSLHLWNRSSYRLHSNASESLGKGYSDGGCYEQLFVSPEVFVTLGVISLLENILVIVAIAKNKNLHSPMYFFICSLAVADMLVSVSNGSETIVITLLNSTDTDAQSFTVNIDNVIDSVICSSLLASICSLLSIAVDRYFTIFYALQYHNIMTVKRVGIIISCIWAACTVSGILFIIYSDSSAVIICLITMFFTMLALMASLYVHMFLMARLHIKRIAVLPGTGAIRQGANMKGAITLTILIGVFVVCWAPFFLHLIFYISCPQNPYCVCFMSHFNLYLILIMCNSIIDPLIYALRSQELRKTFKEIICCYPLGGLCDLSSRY

Ki [1]	Ki [2]	Ki [3]	Ki [4]	Compound
3 µM	65 µM	2.1 µM	21 µM	NC1CCC(CC2CCC(N(Cc3c(F)cccc3F)C(=O)CCCc3c(Cc4ccc(O)cc4)[nH]c4ccccc34)CC2)CC1 (stereo unspecified)
2.7 µM	46 µM	4.3 µM	6.7 µM	COC(=O)c1ccc(CN(C(=O)CCCc2c(Cc3ccc(O)cc3)[nH]c3ccccc23)C2CCC(CC3CCC(N)CC3)CC2)cc1 (stereo unspecified)
4 µM	–	1.3 µM	–	NC1CCC(CC2CCC(N(C/C(Cl)=C/c3ccccc3)C(=O)COc3ccc4ccccc4c3)CC2)CC1 (stereo in doubt; form 7)
2.8 µM	22 µM	3.2 µM	5.2 µM	NC1CCC(CC2CCC(N(Cc3ccccc3Cl)C(=O)CCCc3c[nH]c4ccccc34)CC2)CC1 (stereo unspecified)
3.7 µM	23 µM	1.5 µM	5.5 µM	NC1CCC(CC2CCC(N(C/C(Cl)=C/c3ccccc3)C(=O)COc3ccc4ccccc4c3)CC2)CC1 (stereo in doubt; 10b-36-14)
2.4 µM	25 µM	1.4 µM	21 µM	N#Cc1ccc(CN(C(=O)CCCc2c(Cc3ccc(O)cc3)[nH]c3ccccc23)C2CCC(CC3CCC(N)CC3)CC2)cc1 (stereo unspecified)
2 µM	17 µM	0.96 µM	8.7 µM	NC1CCC(CC2CCC(N(C/C(Cl)=C/c3ccccc3)C(=O)CCCc3c[nH]c4ccccc34)CC2)CC1 (stereo in doubt; form 2)
6.4 µM	37 µM	2.9 µM	7.6 µM	COc1cc(O)ccc1/C=C/CN(C(=O)CCCc1c[nH]c2ccccc12)C1CCC(CC2CCC(N)CC2)CC1 (stereo in doubt; form 1)
3.4 µM	78 µM	2.9 µM	16 µM	Cc1cccc(CN(C(=O)CCCc2c(Cc3ccc(O)cc3)[nH]c3ccccc23)C2CCC(CC3CCC(N)CC3)CC2)c1 (stereo unspecified)
12 µM	278 µM	4.5 µM	44 µM	NC1CCC(CC2CCC(N(C(=O)CCCc3c[nH]c4ccccc34)C3CCc4ccccc4C3)CC2)CC1 (stereo unspecified)
1.9 µM	147 µM	4.7 µM	2.2 µM	Cc1ccc(CN(C(=O)CCCc2c(Cc3ccc(O)cc3)[nH]c3ccccc23)C2CCC(CC3CCC(N)CC3)CC2)cc1 (stereo unspecified)
4.7 µM	–	1.9 µM	–	NC1CCC(CC2CCC(N(C/C(Cl)=C/c3ccccc3)C(=O)COc3ccc4ccccc4c3)CC2)CC1 (stereo in doubt; form 1)
5.9 µM	289 µM	1.5 µM	–	NC1CCC(CC2CCC(N(C/C(Cl)=C/c3ccccc3)C(=O)COc3ccc4ccccc4c3)CC2)CC1 (stereo in doubt; form 2)
5 µM	–	1.9 µM	–	NC1CCC(CC2CCC(N(C/C(Cl)=C/c3ccccc3)C(=O)COc3ccc4ccccc4c3)CC2)CC1 (stereo in doubt; form 6)
4.4 µM	–	0.96 µM	–	NC1CCC(CC2CCC(N(C/C(Cl)=C/c3ccccc3)C(=O)COc3ccc4ccccc4c3)CC2)CC1 (stereo in doubt; form 4)
3.4 µM	–	0.41 µM	–	NC1CCC(CC2CCC(N(C/C(Cl)=C/c3ccccc3)C(=O)COc3ccc4ccccc4c3)CC2)CC1 (stereo in doubt; form 3)
7 µM	28 µM	2.5 µM	–	NC1CCC(CC2CCC(N(Cc3ccncc3)C(=O)CCCc3c[nH]c4ccccc34)CC2)CC1 (stereo in doubt; form 1)

The next lines start with the compound.

Compound	Ki [1]	Ki [2]	Ki [3]	Ki [4]
CC1CC(CC2CCC(N(Cc3ccccc3)C(=O)CCCc3c[nH]c4ccccc34)C(C)C2)CCC1N (stereo in doubt; form 1)	1.2 µM	4.3 µM	0.69 µM	1.7 µM
NCCCCCN(Cc1ccc2ccccc2c1)C(=O)CCc1c[nH]c2ccccc12	62 µM	58 µM	14 µM	7.3 µM
NCCCN(C/C=C/c1ccccc1)C(=O)Cc1ccc2ccccc2c1	6.4 µM	33 µM	2.5 µM	10 µM
CC1CC(CC2CCC(N(Cc3ccccc3)C(=O)CCCc3c[nH]c4ccccc34)C(C)C2)CCC1N (stereo in doubt; form 2)	3.2 µM	22 µM	0.87 µM	4.8 µM
N=C(N)NCCN(Cc1ccc2ccccc2c1)C(=O)CCc1c[nH]c2ccccc12	149 µM	65 µM	14 µM	17 µM
N=C(N)NCCCCN(Cc1ccc2ccccc2c1)C(=O)CCCc1c[nH]c2ccccc12	96 µM	134 µM	3.2 µM	11 µM
CC1CC(CC2CCC(N(Cc3ccccc3)C(=O)CCCc3c[nH]c4ccccc34)C(C)C2)CCC1N (stereo in doubt; form 4)	3.8 µM	12 µM	1.3 µM	5.6 µM
NCCCN(C/C=C/c1ccccc1)C(=O)c1c[nH]c2ccccc12	23 µM	172 µM	17 µM	12 µM
COc1cc(Br)c(/C=C/CN(C(=O)CCCc2c[nH]c3ccccc23)C2CCC(CC3CCC(N)CC3)CC2)cc1OC (stereo unspecified)	3.2 µM	14 µM	2 µM	266 µM
COc1cc(Cl)c(CN(C(=O)CCCc2c[nH]c3ccccc23)C2CCC(CC3CCC(N)CC3)CC2)cc1OC (stereo in doubt; form 1)	2.3 µM	24 µM	2.1 µM	4.3 µM
NCCCN(Cc1ccccc1)C(=O)CCCc1c[nH]c2ccccc12	16 µM	45 µM	17 µM	25 µM
NCCN(Cc1ccccc1)C(=O)CCCc1c[nH]c2ccccc12	21 µM	49 µM	22 µM	–
NCCN(CCCc1ccccc1)C(=O)CCc1c[nH]c2ccccc12	–	127 µM	21 µM	20 µM
NCCCN(C(=O)c1cc2cc(OCc3ccccc3)ccc2[nH]1)C1CCc2ccccc2C1 (stereo unspecified)	21 µM	542 µM	26 µM	681 µM
CCCCCN(Cc1ccc(N(CC)CC)cc1)C(=O)CCCc1c[nH]c2ccccc12	78 µM	289 µM	72 µM	408 µM
NCC1CCCC(CN(C/C(Cl)=C/c2ccccc2)C(=O)CCCc2c[nH]c3ccccc23)C1 (stereo unspecified)	3.7 µM	25 µM	1.5 µM	9.1 µM
NCCCCCN(CCc1ccc2ccccc2c1)C(=O)Cc1c[nH]c2ccccc12	9.4 µM	13 µM	4.5 µM	8 µM
NCCCCCN(C/C=C\c1ccccc1)C(=O)CCCc1c[nH]c2ccccc12	16 µM	36 µM	3 µM	2.2 µM
NCCCCCN(C(=O)COc1ccc2ccccc2c1)C1CCC2(CC=CCC2)CC1 (stereo unspecified)	5.9 µM	3.7 µM	7.4 µM	8 µM
C/C(=C/c1ccccc1)CN(CCCCCN)C(=O)/C=C/c1c[nH]c2ccccc12	99 µM	–	2.7 µM	17 µM
NCCCCCN(CCCc1ccccc1)C(=O)CCCc1c[nH]c2ccccc12	–	61 µM	18 µM	19 µM
NCCN(C/C(Cl)=C/c1ccccc1)C(=O)CCCc1c[nH]c2ccccc12	5.8 µM	65 µM	5.6 µM	–
NCCCN(C(=O)CCc1c[nH]c2ccccc12)C1CCc2ccccc2C1 (stereo unspecified)	7 µM	–	3.7 µM	–
